Assay results reported in patent US8110601B2, “Compound, α1 adrenergic receptor antagonistic agent, and composition” (Suntory Holdings Limited, priority 2007, dated 2012).

What was measured:
α1A receptor = biological target: T1, α1A receptor (Rattus norvegicus, UniProt P43140); test: α1 adrenergic receptor binding test ([3H]prazosin displacement, rat salivary gland membrane homogenate); conditions: [3H]prazosin 0.06 nM as ligand; membrane homogenate of rat salivary gland; 22° C., 60 minutes; specimens 0.02-20 μM
T1 construct: the α1A receptors are present on a membrane of a rat salivary gland; from tissue; host or cells: rat salivary gland membrane homogenate
T1 sequence (P43140 1-466): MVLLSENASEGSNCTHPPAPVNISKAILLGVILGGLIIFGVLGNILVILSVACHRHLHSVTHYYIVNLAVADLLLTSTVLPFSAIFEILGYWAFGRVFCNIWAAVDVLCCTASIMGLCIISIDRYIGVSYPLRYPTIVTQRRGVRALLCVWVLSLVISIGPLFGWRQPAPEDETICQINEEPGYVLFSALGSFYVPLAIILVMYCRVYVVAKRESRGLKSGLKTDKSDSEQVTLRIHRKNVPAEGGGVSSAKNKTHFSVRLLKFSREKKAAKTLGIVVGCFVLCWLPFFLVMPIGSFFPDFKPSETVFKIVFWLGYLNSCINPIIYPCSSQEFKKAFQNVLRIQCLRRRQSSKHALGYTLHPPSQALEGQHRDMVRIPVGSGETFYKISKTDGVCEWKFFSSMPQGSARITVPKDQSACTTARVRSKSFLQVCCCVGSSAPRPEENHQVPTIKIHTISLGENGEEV
Experimental: The compound 19a synthesized in Examples above was weighed, to which 100% dimethylsulfoxide (DMSO) was added so as to prepare a solution at 10-fold of the final concentration. The solution was diluted with an assay buffer, to thereby prepare four types of specimens with different concentrations (0.02 μM, 0.2 μM, 2 μM, 20 μM). In addition, with respect to each of the compound 19b, the racemic mixture of the compounds 19a and 19b, and the racemic mixture of the compounds 20a and 20b, likewise, four types of specimens were prepared (see Mitchel, A. D. et al., (1989) Brt. J. Pharmacol., 98: 883-889).
Next, as the α1 adrenergic receptor, an α1A receptor (one of subtypes of the α1 adrenergic receptor) was used, and a binding ability to the α1A receptor was examined.
It has been known that the α1A receptors are present on a membrane of a rat salivary gland. To an assay buffer (250 μL) containing a membrane homogenate of a rat salivary gland (150 μg in terms of protein amount) were added the above-mentioned specimen and [^3H]prazosin (0.06 nM) as ligand, to thereby prepare a reaction liquid, which was then incubated at 22° C. for 60 minutes. After the incubation, the reaction liquid was subjected to suction filtration using a glass fiber filter (GF/B, manufactured by Packard) which had been washed with 0.3% PEI (polyethyleneimine), to terminate reaction. The glass fiber filter was washed with 50 mM Tris-HCl cooled with ice, washing being repeated several times. The glass fiber filter was dried, a scintillation cocktail (Microscint 0, manufactured by Packard) was added thereto, and residual radioactivity on the filter was measured using a liquid scintillation counter (Topcount, manufactured by Packard). An amount of specific binding of [^3H]prazosin was obtained by subtracting an amount of non-specific binding in the presence of phentolamine (10 μM) from a total binding amount of [^3H]prazosin.

α1 adrenergic receptor = test: Rat tail artery constriction inhibition test; conditions: phenylephrine 10 μM, compound 1 μM, 100 μM in organ bath, other receptors blocked with antagonists
Experimental: Since the α1 adrenergic receptor antagonist has been known to have a vasoconstriction inhibition effect, the constriction inhibition effect of the compounds was examined using rat tail artery.
The compound 19a synthesized in Examples above was weighed, to which 100% dimethylsulfoxide (DMSO) was added so as to prepare a sample solution (stock solution) (concentration of the compound 19a: 100 mM). In addition, the compound 19b, the racemic mixture of the compounds 19a and 19b, and the racemic mixture of the compounds 20a and 20b were prepared likewise.
A tissue (rat tail artery) with an exposed endothelium was suspended in an organ bath filled with 20 mL of saline (NaCl: 118.0 mM, KCl: 4.7 mM, MgSO4: 1.2 mM, CaCl2: 2.5 mM, NaHCO3: 25 mM, glucose: 11.0 mM) (pH7.4) at 37° C., into which 95% oxygen/5% carbon dioxide had been fed. In the rat tail artery tissue, the α2 adrenergic receptor, β adrenergic receptor, histamine H1 receptor, muscarine receptor, and 5-HT2 receptor had been expressed like the α1 adrenergic receptor had, and in order to block the actions of these receptors, antagonistic agents (antagonists) for the respective receptor, i.e., yohimbine (1 μM), propranol (1 μM), pyrilamine (1 μM), atropine (1 μM), and methysergide (1 μM), were added.
In order to measure the contraction of the tissue caused by an action of the α1 adrenergic receptor, the tissue was connected to a force transducer which outputs a tension of the tissue as data. The tension in a static state was adjusted to become 1 g, and was maintained for 60 minutes (during that time period, the tissue was repeatedly washed with saline to readjust the tension). To the tissue was added 10 μM of a reference agonist (phenylephrine 1.0E-05M), and it was confirmed that the tissue responded in a normal manner. At the same time, there was recorded the tension (g) obtained by the contraction of the tissue caused by the action of the reference agonist. After confirming that the tissue responded in a normal manner, the reference agonist was washed out once, and the tissue was allowed to stand still for up to 15 minutes until the response returns to a static state (tension: 1 g).
After the response returned to the static state (tension: 1 g), the reference agonist was added so that the contraction rate of the tissue becomes 100%.
Next, the sample solution or a diluted solution thereof was added in such a manner that each of the concentrations of the compound 19a, the compound 19b, the racemic mixture of the compounds 19a and 19b, and the racemic mixture of the compounds 20a and 20b in the organ bath was increased in three stages (1 μM, 10 μM, 100 μM). Every time the concentration was increased, the tension was measured, and the contraction rate was calculated using the following equation. […]

Row | SMILES | IC50 (α1A receptor) [µM] | effect on contraction of rat tail artery caused by reference agonist (phenylephrine) (α1 adrenergic receptor)
1 | COC(=O)C1c2cc(C=CC(=O)NCCCCNC(=N)N)ccc2OC1c1ccc(O)cc1 (racemic) [racemic mixture of the compounds 19a and 19b, methyl-5-(1E)-[[4-(aminoiminomethyl)amino]butylamino]-3-oxo-1-propenyl]-2,3-dihydro-2-(4-hydroxyphenyl)-3-benzofurancarboxylate] | 2.39 | suppressed a response in the reference agonist (phenylephrine) in a dosage-dependent manner
2 | N=C(N)NCCCCNC(=O)/C=C/c1ccc2c(c1)C(C(=O)O)C(c1ccc(O)cc1)O2 (racemic) [racemic mixture of the compounds 20a and 20b] | 1.99 | suppressed a response in the reference agonist (phenylephrine) in a dosage-dependent manner
3 | COC(=O)[C@@H]1c2cc(/C=C/C(=O)NCCCCNC(=N)N)ccc2O[C@H]1c1ccc(O)cc1 [compound 19a] | 2.03 | suppressed a response in the reference agonist (phenylephrine) in a dosage-dependent manner
4 | COC(=O)[C@H]1c2cc(/C=C/C(=O)NCCCCNC(=N)N)ccc2O[C@@H]1c1ccc(O)cc1 [compound 19b] | 0.61 | suppressed a response in the reference agonist (phenylephrine) in a dosage-dependent manner
